# Activity calls are given as the source filed them. No rule for the calls is given here.
# System: CCRIS mutagenicity, Ames/micronucleus/aberration tests
# Assay: CCRIS mutagenicity studies
# [1] = Test System: AMES SALMONELLA TYPHIMURIUM, Strain/Indicator: TA100, Metabolic Activation: NONE, Method: PREINCUBATION
structure (smiles),measurement,setting,value
COc1cc([C@@H]2c3cc4c(cc3[C@@H](O[C@@H]3O[C@@H]5CO[C@@H](c6cccs6)O[C@H]5[C@H](O)[C@H]3O)[C@H]3COC(=O)[C@H]23)OCO4)cc(OC)c1O,mutagenic call,"Test System: MOUSE LYMPHOMA, Strain/Indicator: L5178Y (HPRT)/6-THIOGUANINE, Metabolic Activation: NONE, Method: FLUCTUATION TEST",inactive; negative
same,mutagenic call,"Test System: MOUSE LYMPHOMA, Strain/Indicator: L5178Y (TK+/TK-), Metabolic Activation: NONE",active; positive
same,mutagenic call,"Test System: MOUSE LYMPHOMA, Strain/Indicator: L5178Y (TK+/TK-), Metabolic Activation: NONE, Method: FLUCTUATION TEST",active; positive
same,mutagenic call,"Test System: MOUSE LYMPHOMA, Strain/Indicator: L5178Y (TK+/TK-), Metabolic Activation: NONE, Method: SUSPENSION/PLATE",active; positive
ClC(Cl)=C(Cl)/C(Cl)=C(\Cl)SCc1ccccc1,mutagenic call,[1],inactive; negative
same,mutagenic call,"Test System: AMES SALMONELLA TYPHIMURIUM, Strain/Indicator: TA100, Metabolic Activation: RAT, LIVER, S-9, AROCLOR 1254, Method: PREINCUBATION",active; positive
O=[N+]([O-])c1ccc2ccc3cc4c(c5ccc1c2c35)[C@H](O)[C@@H](O)C=C4,mutagenic call,"Test System: AMES SALMONELLA TYPHIMURIUM, Strain/Indicator: TA98(1,8-DNP6), Metabolic Activation: NONE",active; positive
same,mutagenic call,"Test System: AMES SALMONELLA TYPHIMURIUM, Strain/Indicator: TA98(1,8-DNP6), Metabolic Activation: RAT, LIVER, S-9, AROCLOR 1254",active; positive
same,mutagenic call,"Test System: AMES SALMONELLA TYPHIMURIUM, Strain/Indicator: TA98(NR), Metabolic Activation: NONE",active; positive
same,mutagenic call,"Test System: AMES SALMONELLA TYPHIMURIUM, Strain/Indicator: TA98(NR), Metabolic Activation: RAT, LIVER, S-9, AROCLOR 1254",active; positive
same,mutagenic call,"Test System: AMES SALMONELLA TYPHIMURIUM, Strain/Indicator: TA98, Metabolic Activation: NONE",active; positive
same,mutagenic call,"Test System: AMES SALMONELLA TYPHIMURIUM, Strain/Indicator: TA98, Metabolic Activation: RAT, LIVER, S-9, AROCLOR 1254",active; positive
same,mutagenic call,"Test System: CHINESE HAMSTER OVARY, Strain/Indicator: CHO-K1-BH4 (HGPRT), Metabolic Activation: NONE",inactive; negative
same,mutagenic call,"Test System: CHINESE HAMSTER OVARY, Strain/Indicator: CHO-K1-BH4 (HGPRT), Metabolic Activation: RAT, LIVER, S-9, 3-METHYLCHOLANTHRENE",inactive; negative
CCCC[C@@H](C)[C@@H](OC(=O)C[C@@H](CC(=O)O)C(=O)O)[C@H](C[C@@H](C)CCCCCC[C@@H](O)C[C@H](O)[C@H](C)N)OC(=O)C[C@@H](CC(=O)O)C(=O)O,mutagenic call,"Test System: AMES SALMONELLA TYPHIMURIUM, Strain/Indicator: TA97A, Metabolic Activation: NONE, Method: STANDARD PLATE",inactive; negative
same,mutagenic call,"Test System: AMES SALMONELLA TYPHIMURIUM, Strain/Indicator: TA97A, Metabolic Activation: RAT, LIVER, S-9, AROCLOR 1254, Method: STANDARD PLATE",inactive; negative
same,mutagenic call,"Test System: AMES SALMONELLA TYPHIMURIUM, Strain/Indicator: TA98, Metabolic Activation: NONE, Method: STANDARD PLATE",inactive; negative
same,mutagenic call,"Test System: AMES SALMONELLA TYPHIMURIUM, Strain/Indicator: TA98, Metabolic Activation: RAT, LIVER, S-9, AROCLOR 1254, Method: STANDARD PLATE",inactive; negative
same,mutagenic call,"Test System: AMES SALMONELLA TYPHIMURIUM, Strain/Indicator: TA100, Metabolic Activation: NONE, Method: STANDARD PLATE",inactive; negative
same,mutagenic call,"Test System: AMES SALMONELLA TYPHIMURIUM, Strain/Indicator: TA100, Metabolic Activation: RAT, LIVER, S-9, AROCLOR 1254, Method: STANDARD PLATE",inactive; negative
same,mutagenic call,"Test System: AMES SALMONELLA TYPHIMURIUM, Strain/Indicator: TA102, Metabolic Activation: NONE, Method: STANDARD PLATE",inactive; negative
same,mutagenic call,"Test System: AMES SALMONELLA TYPHIMURIUM, Strain/Indicator: TA102, Metabolic Activation: RAT, LIVER, S-9, AROCLOR 1254, Method: STANDARD PLATE",inactive; negative
O=C=Nc1cccc2c(N=C=O)cccc12,mutagenic call,"Test System: AMES SALMONELLA TYPHIMURIUM, Strain/Indicator: TA98, Metabolic Activation: NONE, Method: PREINCUBATION",inactive; negative
same,mutagenic call,"Test System: AMES SALMONELLA TYPHIMURIUM, Strain/Indicator: TA98, Metabolic Activation: RAT LIVER S-9, PHENOBARBITAL AND BETA-NAPHTHOFLAVONE, Method: PREINCUBATION",inactive; negative
same,mutagenic call,[1],inactive; negative
same,mutagenic call,"Test System: AMES SALMONELLA TYPHIMURIUM, Strain/Indicator: TA100, Metabolic Activation: RAT LIVER S-9, PHENOBARBITAL AND BETA-NAPHTHOFLAVONE, Method: PREINCUBATION",inactive; negative
same,mutagenic call,"Test System: AMES SALMONELLA TYPHIMURIUM, Strain/Indicator: TA1535, Metabolic Activation: NONE, Method: PREINCUBATION",inactive; negative
same,mutagenic call,"Test System: AMES SALMONELLA TYPHIMURIUM, Strain/Indicator: TA1535, Metabolic Activation: RAT LIVER S-9, PHENOBARBITAL AND BETA-NAPHTHOFLAVONE, Method: PREINCUBATION",inactive; negative
same,mutagenic call,"Test System: AMES SALMONELLA TYPHIMURIUM, Strain/Indicator: TA1537, Metabolic Activation: NONE, Method: PREINCUBATION",inactive; negative
same,mutagenic call,"Test System: AMES SALMONELLA TYPHIMURIUM, Strain/Indicator: TA1537, Metabolic Activation: RAT LIVER S-9, PHENOBARBITAL AND BETA-NAPHTHOFLAVONE, Method: PREINCUBATION",inactive; negative
same,mutagenic call,"Test System: AMES SALMONELLA TYPHIMURIUM, Strain/Indicator: TA1538, Metabolic Activation: NONE, Method: PREINCUBATION",inactive; negative
same,mutagenic call,"Test System: AMES SALMONELLA TYPHIMURIUM, Strain/Indicator: TA1538, Metabolic Activation: RAT LIVER S-9, PHENOBARBITAL AND BETA-NAPHTHOFLAVONE, Method: PREINCUBATION",inactive; negative
same,mutagenic call,"Test System: E.COLI, Strain/Indicator: WP2UVRA, Metabolic Activation: NONE, Method: PREINCUBATION",inactive; negative
same,mutagenic call,"Test System: E.COLI, Strain/Indicator: WP2UVRA, Metabolic Activation: RAT LIVER S-9, PHENOBARBITAL AND BETA-NAPHTHOFLAVONE, Method: PREINCUBATION",inactive; negative
